Measurements reported in patent US7700638B2, “1,5,7-trisubstituted benzimidazole derivatives and their use for modulating the GABAA receptor complex” (N. V. Organon, priority 2003, dated 2010).
Counter-ions that a name gives are not always drawn.

Biological target: GABA recognition site and the benzodiazepine modulatory unit (GABAA receptor complex), cerebral cortex membranes
Test: In vitro inhibition of 3H-flunitrazepam (3H-FNM) binding
Parameters: species or system rat
Conditions: inhibition of specific binding of 3H-FNM (1 nM), cerebral cortex membranes from male Wistar rats, 40 min at 2° C.
Protocol: In vitro Inhibition of ^3H-flunitrazepam (^3H-FNM) Binding
The GABA recognition site and the benzodiazepine modulatory unit can selectively be labelled with ^3H-flunitrazepam.
Preparations are performed at 0-4° C. unless otherwise indicated. Cerebral cortex from male Wistar rats (150-200 g) is homogenised for 5-10 sec in 20 ml […] (30 mM, pH 7.4) using an Ultra-Turrax homogeniser. The suspension is centrifuged at 27,000×g for 15 min and the pellet is washed three times with buffer (centrifuged at 27,000×g for 10 min). The washed pellet is homogenized in 20 ml of buffer and incubated on a water bath (37° C.) for 30 min to remove endogenous GABA and then centrifuged for 10 min at 27,000×g. The pellet is then homogenized in buffer and centrifuged for 10 min at 27,000×g. The final pellet is resuspended in 30 ml buffer and the preparation is frozen and stored at −20° C.
The membrane preparation is thawed and centrifuged at 2° C. for 10 min at 27,000×g. The pellet is washed twice with 20 ml 50 mM Tris-citrate, pH 7.1 using an Ultra-Turrax homogeniser and centrifuged for 10 min at 27,000×g. The final pellet is resuspended in 50 mM Tris-citrate, pH 7.1 (500 ml buffer per g of original tissue), and then used for binding assays. Aliquots of 0.5 ml tissue are added to 25 μl of test solution and 25 μl of ^3H-FNM (1 nM, final concentration), mixed and incubated for 40 min at 2° C. Non-specific binding is determined using Clonazepam (1 μM, final concentration). After incubation the samples are added 5 ml of ice-cold buffer and poured directly onto Whatman GF/C glass fibre filters under suction and immediately washed with 5 ml ice-cold buffer. The amount of radioactivity on the filters is determined by conventional liquid scintillation counting. Specific binding is total binding minus non-specific binding.
25-75% inhibition of specific binding must be obtained, before calculation of an IC50.
The test value will be given as IC50 (the concentration (μM) of the test substance which inhibits the specific binding of ^3H-FNM by 50%).
Co is specific binding in control assays, and
Cx is the specific binding in the test assay.
(The calculations assume normal mass-action kinetics).

Compound | IC50 [µM]
7-[1-(3-Dimethylamino)pyrrolidinyl]-1-phenyl-5-trifluoromethylbenzimidazole trifluoroacetic acid salt [Example 94] | 0.09
Nc1cccc(-c2cc(C=NO)cc3ncn(-c4ccccc4)c23)c1 [Example 6, 7-(3-Aminophenyl)-5-formyl-1-phenylbenzimidazole oxime] | 0.0042
N#Cc1cccc(C=Nc2cc(C(F)(F)F)cc3ncn(-c4ccccc4)c23)c1 [Example 10, 7-(N-(3-cyanobenzylidene)amino)-1-phenyl-5-trifluoromethylbenzimidazole] | 0.018
OCc1cccc(-c2cc(C(F)(F)F)cc3ncn(-c4ccccc4)c23)c1 [Example 12, 7-(3-(Hydroxymethyl)phenyl)-1-phenyl-5-trifluoromethylbenzimidazole] | 0.03
COc1ccc(-c2cc(C#N)cc3ncn(-c4ccccc4)c23)cc1 [Example 23, 5-Cyano-7-(4-methoxyphenyl)-1-phenylbenzimidazole] | 0.038
CCOC(=O)c1cc(-c2cccc(CN3CCN(C)CC3)c2)c2c(c1)ncn2-c1ccccc1 [Example 33, 5-Ethoxycarbonyl-7-(3-((1-methylpiperazin-4-yl)methyl)phenyl)-1-phenylbenzimidazole] | 0.019
CCN(CC)Cc1ccc(-c2cc(C#N)cc3ncn(-c4ccccc4)c23)cc1 [Example 41, 5-Cyano-7-(4-diethylaminomethylphenyl)-1-phenylbenzimidazole trifluoroacetic acid salt] | 0.027
OCc1cc(-c2cccc(OC(F)(F)F)c2)c2c(c1)ncn2-c1ccccc1 [Example 51, 5-(Hydroxymethyl)-1-phenyl-7-(3-trifluoromethoxyphenyl)benzimidazole] | 0.012
COC(=O)C=Cc1cc(C(F)(F)F)cc2ncn(-c3ccccc3)c12 [Example 57, 3-(3-Phenyl-6-trifluoromethyl-3H-benzimidazol-4-yl)acrylic acid methyl ester] | 0.046
CCN(CC)C(=O)C=Cc1cc(C(F)(F)F)cc2ncn(-c3ccccc3)c12 [Example 65, N,N-Diethyl-3-(3-phenyl-6-trifluoromethyl-3H-benzimidazol-4-yl)acrylamide] | 0.02
FC(F)(F)c1cc(C#CCN2CCOCC2)c2c(c1)ncn2-c1ccccc1 [Example 80, 7-(3-(4-Morpholino)prop-1-ynyl)-1-phenyl-5-trifluoromethylbenzimidazole trifluoroacetic acid salt] | 0.18
CCN(CC)C(=O)CCc1cc(C(F)(F)F)cc2ncn(-c3ccccc3)c12 [Example 81, N,N-Diethyl-3-(3-Phenyl-6-trifluoromethyl-3H-benzimidazol-4-yl)propionamide] | 0.038
CN(CCC#N)CCCCc1cc(C(F)(F)F)cc2ncn(-c3ccccc3)c12 [Example 88, 7-(4-((N-(2-Cyanoethyl)-N-methyl)amino)-1-butyl)-1-phenyl-5-trifluoromethylbenzimidazole trifluoroacetic acid salt] | 0.1
FC(F)(F)c1cc(C#CCN2CC=CCC2)c2c(c1)ncn2-c1ccccc1 [Example 92, 1-Phenyl-7-(3-(1-(1,2,3,6-tetrahydropyridinyl))prop-1-ynyl)-5-trifluoromethylbenzimidazole] | 0.048
